The values below come from patent US7419984B2, “Pyrimidines and uses thereof” (Cell Therapeutics, Inc., priority 2002, dated 2008).

This test addresses T1, human LPAAT-β (Homo sapiens, UniProt O15120).
T1 construct: the full-length human LPAAT-β cDNA was amplified by PCR; poly-histidine tag (N); made in house; host or cells: Sf9 insect cells (baculovirus, pFastBac HTc); the membrane fraction was used as the enzyme
T1 sequence (O15120 24-278): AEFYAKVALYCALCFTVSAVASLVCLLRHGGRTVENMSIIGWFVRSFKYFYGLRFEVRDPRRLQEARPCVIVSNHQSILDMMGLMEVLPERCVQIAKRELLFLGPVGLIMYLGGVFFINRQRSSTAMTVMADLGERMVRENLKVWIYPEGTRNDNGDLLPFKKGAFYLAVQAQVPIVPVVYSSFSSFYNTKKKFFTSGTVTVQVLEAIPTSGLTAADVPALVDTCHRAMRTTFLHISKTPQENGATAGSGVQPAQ
The test can be described thus: LPAAT-β cell-free assay. Format: biochemical. Conditions: Sf9 cell membrane overexpressing recombinant LPAAT-β. In outline:
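Membranes from Sf9 cells expressing His/myc-tagged full-length human LPAAT-β were used in HEPES-saline pH 7.5 with 1 mg/ml BSA. Compound was added from a 200 μM DMSO stock, and reaction with 18:1-CoA and sn-1-18:1 lysoPA (1 mM stocks) ran 25 min at RT. Released CoA was detected with DTNB at 405 nm; a radiometric variant used 200 μM [14C]18:1-CoA and 200 μM lysoPA.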

Each structure is given as a SMILES string.

As to `COc1ccc(Cl)cc1-c1cc(Nc2ccc(Cl)cc2)nc(N)n1` [Example 2, 6-(5-Chloro-2-methoxy-phenyl)-N*4*-(4-chloro-phenyl)-pyrimidine-2,4-diamine], the concentration for half-maximal inhibition (IC50) (commonly the concentration at which inhibition is half-maximal) came out at 54 nM.
With `CCOc1ccc(Br)cc1-c1cc(Nc2ccc(C(C)O)cc2)nc(N)n1` (centres unmarked) [Example 134], the IC50 came to 110 nM.
`Cc1ccc(Cl)cc1-c1cc(Nc2ccc(CCCCO)cc2)nc(N)n1` [Example 110, 4-{4-[2-Amino-6-(5-Chloro-2-methyl-phenyl)-pyrimidin-4-ylamino]-phenyl}-butan-1-ol]: the half-maximal inhibitory concentration (IC50) was 210 nM.
Still for that read-out and setting: the same measure for `CCOc1ccc(Cl)cc1-c1cc(Nc2ccc(OCCO)cc2)nc(N)n1` [Example 90, 2-{4-[2-Amino-6-(5-chloro-2-ethoxy-phenyl)-pyrimidin-4-ylamino]-phenoxy}-ethanol]: 780 nM; for `Nc1nc(Nc2ccc(Cl)cc2)cc(-c2cc(Cl)ccc2Cl)n1` [Example 20, N*4*-(4-Chloro-phenyl)-6-(2,5-dichloro-phenyl)-pyrimidine-2,4-diamine]: 20 nM; for `CCc1ccc(Cl)cc1-c1cc(Nc2ccc(CCO)cc2)nc(N)n1` [Example 175, 2-{4-[2-amino-6-(5-chloro-2-ethyl-phenyl)-pyrimidin4-ylamino]-phenyl}-ethanol]: 100 nM.
Still for that read-out and setting: the result for `COc1ccc(Cl)cc1-c1cc(Nc2ccc(Cl)cc2)nc(C)n1` [Example 38, [6-(5-Chloro-2-methoxy-phenyl)-2-methyl-pyrimidin-4-yl]-(4-chloro-phenyl)-amine] reads 50 nM; that for `COc1ccc(Br)cc1-c1cc(Nc2ccc([N+](=O)[O-])cc2)nc(N)n1` [Example 161, 6-(5-Bromo-2-methoxy-phenyl)-N*4*-(4-nitro-phenyl)-pyrimidine-2,4-diamine], 14 nM.
The same measure, in the same setting: the same measure for `COc1ccc(Nc2cc(-c3cc(Cl)ccc3OC)nc(N)n2)cc1` [Example 7, 6-(5-Chloro-2-methoxy-phenyl)-N*4*-(4-methoxy-phenyl)-pyrimidine-2,4-diamine]: 410 nM; for `COCCOc1ccc(Br)cc1-c1cc(Nc2ccc(Cl)cc2)nc(N)n1` [Example 143, 6-[5-Bromo-2-(2-methoxy-ethoxy)-phenyl]-N*4*-(4-chloro-phenyl)-pyrimidine-2,4-diamine]: 22 nM; for `CC(=NO)c1ccc(Nc2cc(-c3cc(Cl)cc(Cl)c3Cl)nc(N)n2)cc1` [Example 147, 1-{4-[2-Amino-6-(2,3,5-trichloro-phenyl)-pyrimidin-4-ylamino]-phenyl}-ethanone oxime]: 390 nM.
In the case of `COc1ccc(Nc2cc(-c3cc(Cl)ccc3Cl)nc(N)n2)cc1` [Example 16, 6-(2,5-Dichloro-phenyl)-N*4*-(4-methoxy-phenyl)-pyrimidine-2,4-diamine], the IC50 amounted to 120 nM.
The same measure, in the same setting: the same measure for `CCOC(=O)c1cccc(Nc2cc(-c3cc(Cl)ccc3C)nc(N)n2)c1` [Example 114, 3-[2-Amino-6-(5-chloro-2-methyl-phenyl)-pyrimidin4-ylamino]-benzoic acid ethyl ester]: 42 nM; for `CCOc1ccc(Br)cc1-c1cc(Nc2ccc(C(C)=NO)cc2)nc(N)n1` [Example 130, 1-{4-[2-Amino-6-(5-bromo-2-ethoxy-phenyl)-pyrimidin4-ylamino]-phenyl}-ethanone-oxime]: 84 nM.
On the same count and under the same terms, the result for `Cc1ccc(Cl)cc1-c1cc(Nc2ccc(C(O)C(F)(F)F)cc2)nc(N)n1` (centres unmarked) [Example 103, 1-{4-[2-Amino-6-(5-chloro-2-methyl-phenyl)-pyrimidin4-ylamino]-phenyl}-2,2,2-trifluoro-ethanol] reads 54 nM; that for `CCOc1ccc(Cl)cc1-c1cc(Nc2ccc3cn[nH]c3c2)nc(N)n1` [Example 54, 6-(5-Chloro-2-ethoxy-phenyl)-N*4*-(1H-indazol-6-yl)-pyrimdine-2,4-diamine], 24 nM.
For `CCOc1ccc(I)cc1-c1cc(Nc2ccc(N=[N+]=[N-])cc2)nc(N)n1` [Example 140, N*4*-{4-Azido-phenyl)-6-(2-ethoxy-5-iodo-phenyl)-pyrimidine-2,4-diamine], the 50% inhibitory concentration (IC50) came to 100 nM.
The same measure, in the same setting: the result for `Cc1ccc(Cl)cc1-c1cc(Nc2ccc([N+](=O)[O-])cc2)nc(N)n1` [Example 108, 6-(5-Chloro-2-methyl-phenyl)-N*4*-(4-nitro-phenyl)-pyrimidine-2,4-diamine] reads 15 nM; that for `COc1ccc(Cl)cc1-c1nc(N)cc(Nc2ccc(Br)cc2)n1` [Example 36, N-(4-Bromo-phenyl)-2-(5-chloro-2-methoxy-phenyl)-pyrimidine4,6-diamine], 8000 nM; that for `Cc1nc(Nc2ccc(Br)cc2)cc(-c2cc(Cl)ccc2C)n1` [Example 41, [6-(5-Chloro-2-methyl-phenyl)-2-methyl-pyrimidin-4-yl]-(4-bromo-phenyl)-amine], 21 nM.
On the same count and under the same terms, the result for `CCOc1ccc(Br)cc1-c1cc(Nc2cccc(C(N)=O)c2)nc(N)n1` [Example 138, 3-[2-Amino-6-(5-Bromo-2-ethoxy-phenyl)-pyrimidin-4yl-amino]-benzamide] reads 950 nM; that for `Nc1nc(Nc2ccc(C(F)(F)F)cc2)cc(-c2cc(Cl)cc(Cl)c2)n1` [Example 112, 6-(3,5-Dichloro-phenyl)-N*4*-(4-trifuoromethyl-phenyl)-pyrimidine-2,4-diamine], 640 nM.
In the case of `CC(=NO)c1ccc(Nc2cc(-c3cc(Cl)ccc3C)nc(N)n2)cc1` [Example 104, 1-{4-[2-Amino-6-(5-chloro-2-methyl-phenyl)-pyrimidin-4-ylamino]-phenyl}-ethanone-oxime], the IC50 amounted to 160 nM.
Consider `Cc1ccc(Cl)cc1-c1cc(Nc2ccc3[nH]nnc3c2)nc(N)n1` [Example 125, N*4*-(1H-Benzotriazol-5-yl)-6-(5-chloro-2-methylphenyl)pyrimidine-2,4-diamine], for which the IC50 worked out at 90 nM.
The same measure, in the same setting: the result for `CCOc1ccc(Br)cc1-c1cc(Nc2ccc(C(F)(F)F)cc2)ncn1` [Example 180, [6-(5-Bromo-2-ethoxy-phenyl)-pyrimidin-4-yl]-(4-trifluoromethyl-phenyl)-amine] reads 160 nM; that for `Nc1nc(Nc2ccc(Cl)cc2)cc(-c2ccccc2)n1` [Example 106, N*4*-(4-Chloro-phenyl)-6-phenyl-pyrimidine-2,4-diamine], 1100 nM.
Same read-out and setting: the same measure for `CCOc1ccc(Cl)cc1-c1cc(Nc2ccc(CCCO)cc2)nc(N)n1` [Example 92, 3-{4-[2-Amino-6-(5-chloro-2-ethoxy-phenyl)-pyrimidin4-ylamino]-phenyl}-propan-1-ol]: 230 nM; for `Nc1nc(Nc2ccc(Cl)cc2)cc(-c2cc(Cl)ccc2OCC2CCCCC2)n1` [Example 168, 6-(5-Chloro-2-cyclohexylmethoxy-phenyl)-N*4*-(4-chloro-phenyl)-pyrimidine-2,4-diamine]: 16 nM; for `CCOc1ccc(Br)cc1-c1cc(Nc2ccc(CCO)cc2)ncn1` [Example 191, 2-{4-[6-(5-Bromo-2-ethoxy-phenyl)-pyrimidin-4-ylamino]-phenyl}-ethanol]: 20 nM.
Same read-out and setting: the same measure for `Cc1ccc(Br)cc1-c1cc(Nc2ccc(CCCCO)cc2)nc(N)n1` [Example 101, 4-{4-[2-Amino-6-(5-bromo-2-methyl-phenyl)-pyrimidin4-ylamino]-phenyl}-butan-1-ol]: 290 nM.
For the molecule `CCOc1ccc(Br)cc1-c1cc(Nc2ccc(C(F)(F)F)nc2)nc(N)n1` [Example 128, 6-(5-bromo-2-ethoxyphenyl)-N*4*-(6-trifluoromethylpyridin-3-yl)-pyrimidine-2,4-diamine], the half-inhibitory concentration (IC50) was 190 nM.
Take `COc1ccc(Cl)cc1-c1nc(N)nc(Nc2ccc3cn[nH]c3c2)c1C` [Example 51, 6-(5-Chloro-2-methoxy-phenyl)-5-methyl-N*4*-(1H-indazol-6-yl)-pyrimidine-2,4-diamine]: the “LPAAT-β cell-free assay (IC50, μM)” value is “Lessactive”.
For `COc1ccc(Cl)cc1-c1cc(N)nc(Nc2ccc3cn[nH]c3c2)n1` [Example 35, 6-(5-Chloro-2-methoxyphenyl)-N*2*-(1H-indazol-6yl)-pyrimidine-2,4-diamine], the IC50 turned out to be 800 nM.
The same measure, in the same setting: the result for `CNC(=O)c1cc(Nc2cc(-c3cc(Br)ccc3C)nc(N)n2)ccc1Cl` [Example 75, 5-[2-Amino-6-(5-bromo-2-methyl-phenyl)-pyrimidin-4-ylamino]-2-chloro-N-methyl-benzamide] reads 180 nM; that for `Nc1nc(Nc2ccc(C(F)(F)F)cc2)cc(-c2cc(Br)ccc2OCc2ccccc2)n1` [Example 153, 6-(2-Benzyloxy-5-bromo-phenyl)-N*4*-(4-trifluoromethyl-phenyl)-pyrimidine-2,4-diamine], 6 nM.
As for `COc1ccccc1COc1ccc(Br)cc1-c1cc(Nc2ccc(C)cc2)nc(N)n1` [Example 188, 6-[5-Bromo-2-(2-methoxy-benzyloxy)-phenyl]-N*4*-p-tolyl-pyrimidine-2,4-diamine], the IC50 stood at 21 nM.
On the same count and under the same terms, the result for `CCOc1ccc(Cl)cc1-c1cc(Nc2ccc(C(F)(F)F)cc2)nc(N)n1` [Example 56, 6-(5-Chloro-2-ethoxy-phenyl)-N*4*-(4-trifluoromethyl-phenyl)-pyrimidine-2,4-diamine] reads 70 nM.
Same read-out and setting: the same measure for `CCOc1ccc(Br)cc1-c1cc(Nc2ccc(Br)cc2)ncn1` [Example 181, [6-(5-Bromo-2-ethoxy-phenyl)-pyrimidin-4-yl]-(4-bromo-phenyl)-amine]: 40 nM.
